# pIC50: −log10 of the molar value.
# Tested on: MCF7 complex spheroid growth, % test/control
# Test: Anticancer human tumor MCF7 cell line growth inhibition [Asc];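 also: spheroids exposed to compounds for 7 days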;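 as to viability, T/C: 100% = DMSO vehicle control wells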
# Settings: for pIC50: curve of first compound; for viability, T/C: stronger effect = lower value
# How it was run: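 Concentration series start at each agent's clinical Cmax, or at 10 microM when none is established, and drop in half-log steps; agents are applied alone or together to complex spheroids built with HUVEC and hMSC.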
structure (smiles),measurement,setting,value
COc1c(OCCCN2CCOCC2)ccc2c3n(c(=NC(=O)c4cnc(N)nc4)nc12)CCN3 + Cc1c(S(C)(=O)=O)c(-c2cc(F)cc(N3CCN(c4ccc(NS(=O)(=O)c5ccc(NC(CCN6CCC(C(=O)OCCCP(=O)(O)O)CC6)CSc6ccccc6)c(S(=O)(=O)C(F)(F)F)c5)cc4)CC3)c2)c(-c2ccc(Cl)cc2)n1C(C)C,pIC50,second compound 0.0316 µM,7.50
same,pIC50,second compound 0.1 µM,7.42
same,pIC50,second compound 0.316 µM,7.40
same,pIC50,second compound 1 µM,7.48
same,pIC50,second compound 3.16 µM,7.48
same,pIC50,second compound 10 µM,7.12
same,"viability, T/C","second compound 0.0316 µM, first compound 0.00316 µM",89.8%
same,"viability, T/C","second compound 0.0316 µM, first compound 0.01 µM",73%
same,"viability, T/C","second compound 0.0316 µM, first compound 0.0316 µM",48.7%
same,"viability, T/C","second compound 0.0316 µM, first compound 0.1 µM",33%
same,"viability, T/C","second compound 0.0316 µM, first compound 0.316 µM",12%
same,"viability, T/C","second compound 0.0316 µM, first compound 1 µM",11.4%
same,"viability, T/C","second compound 0.1 µM, first compound 0.00316 µM",77.6%
same,"viability, T/C","second compound 0.1 µM, first compound 0.01 µM",69%
same,"viability, T/C","second compound 0.1 µM, first compound 0.0316 µM",53.1%
same,"viability, T/C","second compound 0.1 µM, first compound 0.1 µM",33.2%
same,"viability, T/C","second compound 0.1 µM, first compound 0.316 µM",11.2%
same,"viability, T/C","second compound 0.1 µM, first compound 1 µM",9.98%
same,"viability, T/C","second compound 0.316 µM, first compound 0.00316 µM",72.9%
same,"viability, T/C","second compound 0.316 µM, first compound 0.01 µM",72.2%
same,"viability, T/C","second compound 0.316 µM, first compound 0.0316 µM",53.9%
same,"viability, T/C","second compound 0.316 µM, first compound 0.1 µM",30.3%
same,"viability, T/C","second compound 0.316 µM, first compound 0.316 µM",10.3%
same,"viability, T/C","second compound 0.316 µM, first compound 1 µM",11.9%
same,"viability, T/C","second compound 1 µM, first compound 0.00316 µM",73.6%
same,"viability, T/C","second compound 1 µM, first compound 0.01 µM",68%
same,"viability, T/C","second compound 1 µM, first compound 0.0316 µM",50.5%
same,"viability, T/C","second compound 1 µM, first compound 0.1 µM",27.4%
same,"viability, T/C","second compound 1 µM, first compound 0.316 µM",12.9%
same,"viability, T/C","second compound 1 µM, first compound 1 µM",13.1%
same,"viability, T/C","second compound 3.16 µM, first compound 0.00316 µM",76.5%
same,"viability, T/C","second compound 3.16 µM, first compound 0.01 µM",64.6%
same,"viability, T/C","second compound 3.16 µM, first compound 0.0316 µM",52.2%
same,"viability, T/C","second compound 3.16 µM, first compound 0.1 µM",30.4%
same,"viability, T/C","second compound 3.16 µM, first compound 0.316 µM",11.8%
same,"viability, T/C","second compound 3.16 µM, first compound 1 µM",13.4%
same,"viability, T/C","second compound 10 µM, first compound 0.00316 µM",171%
same,"viability, T/C","second compound 10 µM, first compound 0.01 µM",164%
same,"viability, T/C","second compound 10 µM, first compound 0.0316 µM",103%
same,"viability, T/C","second compound 10 µM, first compound 0.1 µM",34.7%
same,"viability, T/C","second compound 10 µM, first compound 0.316 µM",14.6%
same,"viability, T/C","second compound 10 µM, first compound 1 µM",11.9%
